The record followed here is patent publication US20230295157A1, “3-(1H-IMIDAZOL-2-YL)-2,3,8,8A-TETRAHYDROINDOLIZIN-5(1H)-ONE DERIVATIVES USEFUL AS FACTOR XIA INHIBITORS” (JANSSEN PHARMACEUTICA NV, priority 2020, published 2023).

The target in experiment [1] is human plasma kallikrein (Homo sapiens (Human), UniProt P03952). As to the kind of experiment: Kallikrein inhibition assay (FLINT) utilizing a quenched AMC peptide substrate. Format: biochemical. The following applies: 30 min preincubation, kinetic reads over 30 min, Z-Gly-Pro-Arg-AMC substrate 50 μM; read-out: Kallikrein Kin Inh IC50. Here is the method:
Biological Example 2: Kallikrein Inhibition Assay Utilizing a Quenched AMC Peptide Substrate A fluorescence intensity (FLINT) based assay was used to monitor inhibition of human plasma kallikrein.
The Kallikrein FLINT assay was used with the following Z-Gly-Pro-Arg-AMC assay buffer: 50 mM Tris, pH 7.5, 100 mM NaCl, 5 mM CaCl2), 0.1 mg/mL BSA, 0.03% CHAPS. Assay buffer was prepared by mixing all ingredients fresh. 2×Z-Gly-Pro-Arg-AMC peptide substrate was prepared by diluting 10 mM stock into 1×assay buffer for a 100 μM working concentration (50 μM final concentration). The 2×kallikrein stock solution was prepared by diluting 14.76 μM stock in 1×assay buffer for a 4 nM working stock solution (2 nM final concentration).
Test compound(s) were run in an 11-point, 3-fold serial dilution with a final top compound concentration of 1 μM. Final DMSO in assay was 2%. Plasma kallikrein was pre-incubated for 30-minute with compound and then 50 μM substrate was added to initiate the reaction. The assay was run with kinetic (KIN) reads at 5 min intervals over 30 minutes. […] More specifically, the assay was run as follows: • 100 nL of 0.1 mM test compound was dispensed into black 384-well non-binding Greiner BioOne 784900 plate for 1 μM final concentration; • 5 μL of 1×assay buffer was dispensed to columns 24 (low control) and 5 μL 2×human kallikrein enzyme solution was dispensed to columns 1-23 (column 23 high control); • the plate was centrifuged with a “cover” plate at 500 rpm for 1 min • the plate was pre-incubated for 30 minutes at room temperature with plate covered; • 5 μL of 2×Z-Gly-Pro-Arg-AMC peptide substrate was dispensed into the entire plate, columns 1-24; • the plate was centrifuged with a “cover” plate at 500 rpm for 1 min; • the plate was read monitoring fluorescence intensity on the BMG PHERAStar at room temperature, using fluorescence module 340 nm/440 nm.
(§1) Percent inhibition (IC50) curves were generated per compound tested, and data was analyzed using a 4-parameter logistic fit using GeneData Screener. The relative fluorescence unit (RFU) values were normalized to percent inhibition using the following equation:
% inhibition=((HC-LC)−(compound-LC)\(HC-LC))*100 where LC—low control=mean signal of human kallikrein enzyme or 100% inhibition of human kallikrein enzyme; HC—high control=mean signal of Factor XIa+Z-Gly-Pro-Arg-AMC peptide substrate with DMSO only.
(§2) An 11-point dose response curve for the test compound(s) was generated using GENDATA to determine IC50 value based on the following equation:
Y=Bottom+(Top-Bottom)/(1+10^((logIC50−X)*HillSlope)) where Y is the % inhibition in the presence of X inhibitor concentration, Top=high control=mean signal of human kallikrein enzyme+Z-Gly-Pro-Arg-AMC peptide substrate with DMSO only; Bottom=low control−mean signal of no human kallikrein enzyme or 100% inhibition of human kallikrein enzyme; HillSlope—Hill coefficient; and IC50=concentration of compound with 50% inhibition in relation to top/high control.

For experiment [2], the target named is Factor XIa (Homo sapiens (Human), UniProt P03951). As to the kind of experiment: Factor XIa inhibition assay (FLINT) utilizing a fluorophore-quencher pair peptide substrate. Format: biochemical. The note with it: 30 min preincubation, kinetic reads over 30 min, read-out: FXIa Kin Inh IC50.
Source text: Biological Example 1: Factor XIa Inhibition Assay Utilizing a Fluorophore-Quencher Pair Peptide Substrate
A fluorescence intensity (FLINT) based assay was used to monitor inhibition of Factor XIa. The peptide substrate, 5Fam-[…]-K5Tamra (purchased from New England Peptide) was chosen based on the FXI sequence. Conversion of zymogen […]. The custom peptide used in this assay was based on the Arg146 cleavage site of FXI. The peptide substrate was designed with a fluorophore-quencher pair, where the fluorescence is quenched until FXIa cleaves the 8-mer peptide after the Arg residue.
The Factor XIa FLINT assay was used with the following 5Fam-[…]-K5Tamra assay buffer: 50 mM Tris, pH 7.5, 100 mM NaCl, 5 mM CaCl2), 0.1 mg/mL BSA, 0.03% CHAPS. Assay buffer was prepared by mixing all ingredients fresh. 5Fam-[…]-K5Tamra peptide substrate was first prepared at 10 mM in 100% DMSO, then diluted to 3 mM in 100% DMSO. Assay buffer was then added directly to the 3 mM stock of substrate to prepare the 30 μM 2× working concentration (15 μM final concentration). The 2×Factor XIa stock solution was prepared by diluting 6.562 μM stock in 1×assay buffer for a 200 μM working stock solution (100 μM final concentration).
Test compound(s) were run in an 11-point, 3-fold serial dilution with a final top compound concentration of 100 nM. Final DMSO in assay was 2%. FXIa was preincubated with compound for 30-minutes and then substrate was added to initiate the reaction. The assay was run with kinetic (KIN) reads at 5 min intervals over 30 minutes. The time course was linear using 100 μM FXIa greater than 30 minutes. More specifically, the assay was run as follows: • 100 nL of 0.01 mM test compound was dispensed into black 384 well non-binding Greiner BioOne 784900 plate for 0.1 μM final concentration; • 5 μL of 1×assay buffer was dispensed to column 24 (low control) and 5 μL 2×Factor XIa solution was dispensed to columns 1-23 (column 23 high control); • the plate was centrifuged with a “cover” plate at 500 rpm for 1 min • the plate was pre-incubated for 30 minutes at room temperature with plate covered; • 5 μL of 2×5Fam-[…]-K5Tamra peptide substrate was dispensed into the entire plate, columns 1-24; • the plate was centrifuged with a “cover” plate at 500 rpm for 1 min; • the plate was read monitoring fluorescence intensity on the BMG PHERAStar at room temperature, using fluorescence module 485 nm/520 nm.
as §1
% inhibition=((HC-LC)−(compound−LC)/(HC-LC))*100
where LC—low control=mean signal of no Factor XIa or 100% inhibition of Factor XIa; HC—high control=mean signal of Factor XIa+5Fam-[…]-K5Tamra peptide substrate with DMSO only.
as §2
Y=Bottom+(Top-Bottom)/(1+10^((logIC50-X)*HillSlope))
where Y is the % inhibition in the presence of X inhibitor concentration, Top=high control=mean signal of Factor XIa+5Fam-[…] K5Tamra peptide substrate with DMSO only; Bottom=low control−mean signal of no Factor XIa or 100% inhibition of Factor XIa; HillSlope—Hill coefficient; and IC50=concentration of compound with 50% inhibition in relation to top/high control.
Representative compounds of the present invention were tested according to the procedure described in Biological Example 1 and Biological Example 2 above, with results as listed in Table 3, below.

The mark [3] stands for this setting: 5Fam-[…]-K5Tamra substrate 15 μM.

Usually IC50 stands for the concentration that inhibits the measured activity by half.

Read-outs that look alike come from different tables or passages of the source.

Sequence of Factor XIa (P03951 388-625): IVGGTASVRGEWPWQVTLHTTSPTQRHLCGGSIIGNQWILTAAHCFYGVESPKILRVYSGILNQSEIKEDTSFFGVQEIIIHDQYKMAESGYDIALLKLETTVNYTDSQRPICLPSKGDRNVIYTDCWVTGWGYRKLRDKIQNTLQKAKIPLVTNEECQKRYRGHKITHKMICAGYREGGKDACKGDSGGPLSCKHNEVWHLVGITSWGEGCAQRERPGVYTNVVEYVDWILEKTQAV
Sequence of Factor XIa (P03951 19-387 partner): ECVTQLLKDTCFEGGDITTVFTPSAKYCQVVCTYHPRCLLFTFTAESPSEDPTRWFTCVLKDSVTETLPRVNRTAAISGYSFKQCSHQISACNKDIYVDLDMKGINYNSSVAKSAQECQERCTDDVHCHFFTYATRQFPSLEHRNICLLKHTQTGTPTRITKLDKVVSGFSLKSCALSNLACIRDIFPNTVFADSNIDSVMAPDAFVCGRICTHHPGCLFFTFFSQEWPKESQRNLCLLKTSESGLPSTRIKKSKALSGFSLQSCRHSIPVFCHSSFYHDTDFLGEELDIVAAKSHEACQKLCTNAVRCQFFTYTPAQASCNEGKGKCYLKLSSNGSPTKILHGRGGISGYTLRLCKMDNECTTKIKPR
Sequence of human plasma kallikrein (P03952 391-638): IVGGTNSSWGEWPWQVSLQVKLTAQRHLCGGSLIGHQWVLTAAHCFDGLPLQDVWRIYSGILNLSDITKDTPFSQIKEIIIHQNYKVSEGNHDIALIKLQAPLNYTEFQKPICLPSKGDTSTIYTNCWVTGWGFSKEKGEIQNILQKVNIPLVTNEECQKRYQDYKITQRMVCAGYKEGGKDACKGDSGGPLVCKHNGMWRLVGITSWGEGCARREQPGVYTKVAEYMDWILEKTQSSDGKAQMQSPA
Sequence of human plasma kallikrein (P03952 20-390 partner): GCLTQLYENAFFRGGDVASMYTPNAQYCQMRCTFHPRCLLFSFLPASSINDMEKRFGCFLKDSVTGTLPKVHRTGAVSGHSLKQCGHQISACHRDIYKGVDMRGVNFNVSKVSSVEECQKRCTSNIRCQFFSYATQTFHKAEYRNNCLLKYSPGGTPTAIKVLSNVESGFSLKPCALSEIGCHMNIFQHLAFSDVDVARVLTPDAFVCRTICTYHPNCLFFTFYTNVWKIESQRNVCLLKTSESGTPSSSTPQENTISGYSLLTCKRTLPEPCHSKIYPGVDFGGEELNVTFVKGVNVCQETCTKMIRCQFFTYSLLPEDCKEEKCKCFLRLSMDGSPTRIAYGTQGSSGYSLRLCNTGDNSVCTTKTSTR

Regarding `C[C@@H](C#N)c1nccc(-c2cnc([C@@H]3CCC4CC(c5c(-n6cnnn6)ccc(Cl)c5F)=CC(=O)N43)[nH]2)c1F` (relative stereo) [Example 164, (2*R)-2-(4-(2-((3S)-7-(3-chloro-2-fluoro-6-(1H-tetrazol-1-yl)phenyl)-5-oxo-1,2,3,5,8,8a-hexahydroindolizin-3-yl)-1H-imidazol-5-yl)-3-fluoropyridin-2-yl)propanenitrile], the values for the IC50 in experiment [1] and in experiment [2] (5Fam-KLTRAETV-K5Tamra substrate 15 μM) were 16.6 nM and 4.3 nM, respectively.
Turning to `O=C1C=C(c2c(-n3cnnn3)ccc(Cl)c2F)C[C@@H]2CC[C@@H](c3ncc(-c4ccnc([C@H](O)C(F)(F)F)c4)[nH]3)N12` (relative stereo) [Example 174, (3S*,8aS*)-7-(3-chloro-2-fluoro-6-(1H-tetrazol-1-yl)phenyl)-3-(5-(2-((S*)-2,2,2-trifluoro-1-hydroxyethyl)pyridin-4-yl)-1H-imidazol-2-yl)-2,3,8,8a-tetrahydroindolizin-5(1H)-one], the IC50 is 25.9 nM in experiment [1] and 18.1 nM in experiment [2] (setting [3]).
As to `O=C1C=C(c2c(-n3cnnn3)ccc(Cl)c2F)C[C@H]2CC[C@@H](c3ncc(-c4ccnc([C@@H](O)C(F)(F)F)c4)[nH]3)N12` (relative stereo) [Example 175, (3S*,8 aR*)-7-(3-chloro-2-fluoro-6-(1H-tetrazol-1-yl)phenyl)-3-(5-(2-((R*)-2,2,2-trifluoro-1-hydroxyethyl)pyridin-4-yl)-1H-imidazol-2-yl)-2,3,8,8a-tetrahydroindolizin-5(1H)-one], the figures for the IC50 in experiment [1] and in experiment [2] (setting [3]) were 30.3 nM and 9.5 nM, respectively.
Consider `NC(=O)c1ccc(-c2cnc([C@@H]3CC[C@@H]4CC(c5c(-n6cnnn6)ccc(Cl)c5F)=CC(=O)N43)[nH]2)s1` (relative stereo) [Example 238, 5-(2-((3*S,8aR)-7-(3-Chloro-2-fluoro-6-(1H-tetrazol-1-yl)phenyl)-5-oxo-1,2,3,5,8,8a-hexahydroindolizin-3-yl)-1H-imidazol-5-yl)thiophene-2-carboxamide], for which the IC50 was 0.7 nM in experiment [1] and 0.2 nM in experiment [2] (setting [3]).
The matching figures for `O=C(Nc1cnccc1-c1c[nH]c([C@@H]2CC[C@@H]3CC(c4c(-n5cnnn5)ccc(Cl)c4F)=CC(=O)N32)n1)C1CC1` (relative stereo) [Example 249, N-(4-(2-((3S,8a*R)-7-(3-Chloro-2-fluoro-6-(1H-tetrazol-1-yl)phenyl)-5-oxo-1,2,3,5,8,8a-hexahydroindolizin-3-yl)-1H-imidazol-4-yl)pyridin-3-yl)cyclopropanecarboxamide]: 0.4 nM and 0.2 nM.
In the case of `O=C(Nc1cnccc1-c1c[nH]c([C@@H]2CC[C@H]3CC(c4c(-n5cnnn5)ccc(Cl)c4F)=CC(=O)N32)n1)C1CC1` (relative stereo) [Example 250, N-(4-(24(3S,8aS*)-7-(3-choro-2-fluoro-6-(1H-tetrazol-1-yl)phenyl)-5-oxo-1,2,3,5,8,8a-hexahydroindolizin-3-yl)-1H-imidazol-4-yl)pyridin-3-yl)cyclopropanecarboxamide], the results for the IC50 in experiment [1] and in experiment [2] (setting [3]) were 0.7 nM and 0.2 nM, respectively.
For the molecule `O=C1Nc2ccc(-c3cnc([C@@H]4CC[C@@H]5CC(c6c(-n7cnnn7)ccc(Cl)c6F)=CC(=O)N54)[nH]3)cc2CO1` (relative stereo) [Example 277, 6-(2-((3S,8aR)-7-(3-Chloro-2-fluoro-6-(1H-tetrazol-1-yl)phenyl)-5-oxo-1,2,3,5,8,8a-hexahydroindolizin-3-yl)-1H-imidazol-5-yl)-1,4-dihydro-2H-benzo[d][1,3]oxazin-2-one], the results for the IC50 in experiment [1] and in experiment [2] (setting [3]) were 1.1 nM and 0.2 nM, respectively.
Regarding `O=C1Nc2ccc(-c3cnc([C@@H]4CC[C@H]5CC(c6c(-n7cnnn7)ccc(Cl)c6F)=CC(=O)N54)[nH]3)cc2CO1` (relative stereo) [Example 278], the IC50 in experiment [1] stood at 1.9 nM; in experiment [2] (setting [3]), 0.5 nM.
In the case of `O=C1CCc2cc(-c3cnc([C@@H]4CC[C@H]5CC(c6c(-n7cnnn7)ccc(Cl)c6F)=CC(=O)N54)[nH]3)ccc2N1` (relative stereo) [Example 280, 6-(2-((3S,8aS)-7-(3-Chloro-2-fluoro-6-(1H-tetrazol-1-yl)phenyl)-5-oxo-1,2,3,5,8,8a-hexahydroindolizin-3-yl)-1H-imidazol-5-yl)-3,4-dihydroquinolin-2(1H)-one], the IC50 in experiment [1] came out at 1.2 nM; in experiment [2] (setting [3]), 0.6 nM.
For `O=C1CCc2cc(-c3cnc([C@@H]4CC[C@@H]5CC(c6c(-n7cnnn7)ccc(Cl)c6F)=CC(=O)N54)[nH]3)ccc2N1` (relative stereo) [Example 281, 6-(2-((3S,8aR)-7-(3-Chloro-2-fluoro-6-(1H-tetrazol-1-yl)phenyl)-5-oxo-1,2,3,5,8,8a-hexahydroindolizin-3-yl)-1H-imidazol-5-yl)-3,4-dihydroquinolin-2(1H)-one], in that order: 0.8 nM and 0.3 nM.
`CNc1ccc(-c2cnc([C@@H]3CC[C@@H]4CC(c5c(-n6cnnn6)ccc(Cl)c5F)=CC(=O)N43)[nH]2)c(F)n1` (relative stereo) [Example 282, (3S,8aR)-7-(3-Chloro-2-fluoro-6-(1H-tetrazol-1-yl)phenyl)-3-(5-(2-fluoro-6-(methylamino)pyridin-3-yl)-1H-imidazol-2-yl)-2,3,8,8a-tetrahydroindolizin-5(1H)-one]: the half-inhibitory concentration (IC50) in experiment [1] came to 9 nM; in experiment [2] (setting [3]), 1.2 nM.
